Data published in patent US8426602B2, “Heteroaryl-substituted dicyanopyridines and their use” (Bayer Intellectual Property GmbH, priority 2008, dated 2013).

What was measured:
Format in all cases: cell-based
[1] = molecular target: T1, adenosine A1 receptor (Homo sapiens, UniProt P30542); test: Indirect determination of adenosine agonism by way of gene expression (luciferase), A1 cells; details: stably transfected CHO cells; 1 μM forskolin; 50% inhibition of luciferase response
T1 construct: expressed in transfected cells; host or cells: CHO (Chinese Hamster Ovary)
T1 sequence (P30542 1-326): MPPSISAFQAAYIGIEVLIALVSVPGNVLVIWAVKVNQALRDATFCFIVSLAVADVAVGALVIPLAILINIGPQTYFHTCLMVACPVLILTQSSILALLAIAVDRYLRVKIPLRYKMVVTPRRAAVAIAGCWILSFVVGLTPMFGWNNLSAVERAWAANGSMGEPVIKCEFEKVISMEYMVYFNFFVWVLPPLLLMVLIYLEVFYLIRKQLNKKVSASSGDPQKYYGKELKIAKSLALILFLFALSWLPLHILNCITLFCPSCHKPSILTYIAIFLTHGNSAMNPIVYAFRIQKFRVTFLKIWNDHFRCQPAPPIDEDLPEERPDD
From the text: (§1) B-1. Indirect Determination of the Adenosine Agonism by Way of Gene Expression
(§2) Cells of the CHO (Chinese Hamster Ovary) permanent line are transfected stably with the cDNA for the adenosine receptor subtypes A1, A2a and A2b. The adenosine A1 receptors are coupled to the adenylate cyclase by way of Gi proteins, while the adenosine A2a and A2b receptors are coupled by way of Gs proteins. In correspondence with this, the formation of cAMP in the cell is inhibited or stimulated, respectively. After that, expression of the luciferase is modulated by way of a cAMP-dependent promoter. The luciferase test is optimized, with the aim of high sensitivity and reproducibility, low variance and good suitability for implementation on a robot system, by varying several test parameters, such as cell density, duration of the growth phase and the test incubation, forskolin concentration and medium composition. The following test protocol is used for pharmacologically characterizing cells and for the robot-assisted substance screening:
(§3) The stock cultures are grown, at 37° C. and under 5% CO2, in DMEM/F12 medium containing 10% FCS (fetal calf serum) and in each case split 1:10 after 2-3 days. Test cultures are seeded in 384-well plates with 2000 cells per well and grown at 37° C. for approx. 48 hours. The medium is then replaced with a physiological sodium chloride solution (130 mM sodium chloride, 5 mM potassium chloride, 2 mM calcium chloride, 20 mM HEPES, 1 mM magnesium chloride hexahydrate, 5 mM sodium bicarbonate, pH 7.4). The substances to be tested, which are dissolved in DMSO, are pipetted into the test cultures (maximum final concentration of DMSO in the test mixture: 0.5%) in a dilution series of from 5×10^−11 M to 3×10^−6 M (final concentration). 10 minutes later, forskolin is added to the A1 cells and all the cultures are subsequently incubated at 37° C. for four hours. After that, 35 μl of a solution which is composed of 50% lysis reagent (30 mM disodium hydrogenphosphate, 10% glycerol, 3% TritonX100, 25 mM TrisHCl, 2 mM dithiotreitol (DTT), pH 7.8) and 50% luciferase substrate solution (2.5 mM ATP, 0.5 mM luciferin, 0.1 mM coenzyme A, 10 mM tricine, 1.35 mM magnesium sulfate, 15 mM DTT, pH 7.8) are added to the test cultures, which are shaken for approx. 1 minute and the luciferase activity is measured using a camera system. The EC50 values are determined, i.e., the concentrations at which 50% of the luciferase response is inhibited in the case of the A1 cell, and, respectively, 50% of the maximum stimulation with the corresponding substance is achieved in the case of the A2b and A2a cells. […] Pharmacol., 357, 1-9 (1998)).

[2] = molecular target: T2, adenosine A2a receptor (Homo sapiens, UniProt P29274); test: Indirect determination of adenosine agonism by way of gene expression (luciferase), A2a cells; details: stably transfected CHO cells; 50% of maximum stimulation of luciferase
T2 construct: expressed in transfected cells; host or cells: CHO (Chinese Hamster Ovary)
T2 sequence (P29274 whole entry): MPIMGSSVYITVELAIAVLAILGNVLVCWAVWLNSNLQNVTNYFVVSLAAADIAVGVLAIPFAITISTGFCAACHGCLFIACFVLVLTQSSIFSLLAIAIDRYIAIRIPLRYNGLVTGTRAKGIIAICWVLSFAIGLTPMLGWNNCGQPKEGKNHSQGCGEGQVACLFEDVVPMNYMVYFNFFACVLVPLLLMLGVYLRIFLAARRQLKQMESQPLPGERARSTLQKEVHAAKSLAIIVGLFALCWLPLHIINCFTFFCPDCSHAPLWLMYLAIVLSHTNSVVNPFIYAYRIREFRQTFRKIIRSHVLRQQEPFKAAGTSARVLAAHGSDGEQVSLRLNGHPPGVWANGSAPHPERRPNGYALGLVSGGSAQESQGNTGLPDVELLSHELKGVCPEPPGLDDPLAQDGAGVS
From the text: as §1, §2, §3

[3] = molecular target: T3, adenosine A2b receptor (Homo sapiens, UniProt P29275); test: Indirect determination of adenosine agonism by way of gene expression (luciferase), A2b cells; details: stably transfected CHO cells; 50% of maximum stimulation of luciferase
T3 construct: expressed in transfected cells; host or cells: CHO (Chinese Hamster Ovary)
T3 sequence (P29275 1-332): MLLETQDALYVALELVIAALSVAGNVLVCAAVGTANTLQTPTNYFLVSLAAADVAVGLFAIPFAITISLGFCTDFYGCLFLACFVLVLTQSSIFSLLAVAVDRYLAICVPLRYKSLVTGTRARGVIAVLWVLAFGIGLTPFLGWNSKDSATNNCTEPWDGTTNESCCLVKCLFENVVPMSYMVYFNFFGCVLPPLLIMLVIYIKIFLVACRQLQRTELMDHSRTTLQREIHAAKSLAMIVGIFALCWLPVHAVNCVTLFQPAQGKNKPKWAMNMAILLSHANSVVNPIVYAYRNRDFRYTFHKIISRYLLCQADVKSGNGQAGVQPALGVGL
From the text: as §1, §2, §3

[4] = molecular target: T4, adenosine receptor subtype A1 (A1-Gα 16 fusion construct) (Homo sapiens, UniProt P30542); test: Indirect determination of adenosine antagonism via gene expression (NFAT luciferase), A1-Gα16 cells; details: CHO K1 A1-Gα16 cells; agonist 25 nM CPA
T4 construct: "an A1-Gα 16 fusion construct
T4 sequence (P30542 1-326): T1 sequence (P30542 1-326)
From the text: (§4) B-5. Indirect Determination of Adenosine Antagonism Via Gene Expression
For determination of adenosine antagonism on the adenosine receptor subtype A1, once again CHO K1 cells are stably transfected, but this time with a Ca^2+-sensitive reporter construct (NFAT-TA-Luc; Clontech) and an A1-Gα 16 fusion construct. This receptor chimera is, in contrast to the native A1 receptor (Gαi-coupling), coupled to the phospholipase C. The luciferase is expressed here as a function of the cytosolic Ca^2+concentration.
(§5) The permanent cell lines are cultured in DMEM/F12 (Cat.No. BE04-687Q; BioWhittaker) with 10% FCS (fetal calf serum) and various additives (20 ml/liter 1 M HEPES (Cat. No. 15630; Gibco), 20 ml/liter GlutaMAX (Cat. No. 35050-038, Gibco), 14 ml/liter MEM sodium pyruvate (Cat. No. 11360-039; Gibco) 10 ml/liter PenStrep (Cat. No. 15070-063; Gibco)) at 37° C. under 5% carbon dioxide, and split twice weekly.
For testing in the 384-well plate format, the cells are sown at 2000 cells/well in 25 μl/well sowing medium and cultured at 37° C. under 5% carbon dioxide until substance testing. The A2a and A2b cells are sown, 24 h before substance testing, in medium with additives and 5% FCS, the base medium used for the A2a cells being DMEM/F12 and the base medium used for the A2b cells being OptiMEM (Cat. No. 31985-047; Gibco). […] The luciferase activity is detected with a luminescence reader. […]

[5] = molecular target: T5, adenosine receptor subtype A2b (Homo sapiens, UniProt P29275); test: Indirect determination of adenosine antagonism via gene expression (CRE luciferase), A2b cells; details: table after B-5; CHO K1 A2b cells; agonist 30 nM NECA
T5 construct: expressed in transfected cells; host or cells: CHO K1
T5 sequence (P29275 1-332): T3 sequence (P29275 1-332)
From the text: as §4
(§6) Cells of the permanent line CHO K1 (Chinese Hamster Ovary) are stably transfected with a reporter construct (CRE luciferase) and the cDNA for the adenosine receptor subtype A2a or A2b. A2a or A2b receptors are coupled via Gas proteins to the adenylate cyclase. Through receptor activation, the adenylate cyclase is activated and therefore the cAMP level in the cell increases. Via the reporter construct, a cAMP-dependent promoter, the change in the cAMP level is coupled to luciferase expression.
as §5
(§7) For testing in the 384-well plate format, the cells are sown at 2000 cells/well in 25 μl/well sowing medium and cultured at 37° C. under 5% carbon dioxide until substance testing. […] The luciferase activity is detected with a luminescence reader. […]

[6] = molecular target: T6, adenosine receptor subtype A2a (Homo sapiens, UniProt P29274); test: Indirect determination of adenosine antagonism via gene expression (CRE luciferase), A2a cells; details: table after B-5; CHO K1 A2a cells; agonist 30 nM NECA
T6 construct: expressed in transfected cells; host or cells: CHO K1
T6 sequence (P29274 whole entry): as the sequence (P29274 whole entry) above
From the text: as §4, §6, §5, §7

Structure (SMILES) | EC50 [1] | EC50 [2] | EC50 [3] | IC50 [4] | EC50 [5] | EC50 [6]
N#Cc1c(SCc2csc(-c3ccc(Cl)cc3)n2)nc(N2CC(O)C2)c(C#N)c1-c1nccs1 [Example 22] | 0.6 nM | 2470 nM | 1280 nM | – | – | –
CNC(=O)c1cc(CSc2nc(NCCO)c(C#N)c(-c3cc[nH]n3)c2C#N)ccn1 [Example 29] | – | – | – | 3.6 nM | 267 nM | –
N#Cc1c(N)nc(SCc2coc(-c3ccc(Cl)cc3)n2)c(C#N)c1-c1cncs1 [Example 4, 2-Amino-6-([2-(4-chlorophenyl)-1,3-oxazol-4-yl]methylsulfanyl)-4-(1,3-thiazol-5-yl)pyridine-3,5-dicarbonitrile] | 0.9 nM | 3000 nM | 3000 nM | – | – | –
N#Cc1c(N)nc(SCc2csc(-c3ccc(Cl)cc3)n2)c(C#N)c1-c1cscn1 [Example 1, 2-Amino-6-([2-(4-chlorophenyl)-1,3-thiazol-4-yl]methylsulfanyl)-4-(1,3-thiazol-4-yl)pyridine-3,5-dicarbonitrile] | 0.5 nM | 3000 nM | 1570 nM | – | – | –
N#Cc1c(N)nc(SCc2csc(-c3ccc(Cl)cc3)n2)c(C#N)c1-c1cnc[nH]1 [Example 8] | 1.2 nM | 275 nM | 715 nM | – | – | –
CC(O)Cn1ccc(-c2c(C#N)c(N)nc(SCc3csc(-c4ccc(Cl)cc4)n3)c2C#N)n1 (centres unmarked) [Example 30, 2-Amino-6-([2-(4-chlorophenyl)-1,3-thiazol-4-yl]methylsulfanyl)-4-[1-(2-hydroxypropyl)-1H-pyrazol-3-yl]pyridine-3,5-dicarbonitrile] | 1.9 nM | 2000 nM | 1410 nM | – | – | –
N#Cc1c(SCc2csc(-c3ccc(Cl)cc3)n2)nc(N2CC(O)C2)c(C#N)c1-c1cc[nH]n1 [Example 27] | 1.1 nM | 6500 nM | 6500 nM | – | – | –
N#Cc1c(SCc2csc(-c3ccc(Cl)cc3)n2)nc(N2CC(O)C2)c(C#N)c1-c1cncs1 [Example 16, 2-([2-(4-Chlorophenyl)-1,3-thiazol-4-yl]methylsulfanyl)-6-(3-hydroxyazetidin-1-yl)-4-(1,3-thiazol-5-yl)pyridine-3,5-dicarbonitrile] | 0.4 nM | 3000 nM | 3000 nM | – | – | –
N#Cc1c(SCc2csc(-c3ccc(Cl)cc3)n2)nc(N2CC[C@@H](O)C2)c(C#N)c1-c1cncs1 [Example 47, 2-({[2-(4-Chlorophenyl)-1,3-thiazol-4-yl]methyl}sulfanyl)-6-[(3R)-3-hydroxypyrrolidin-1-yl]-4-(1,3-thiazol-5-yl)pyridine-3,5-dicarbonitrile] | 0.5 nM | 3000 nM | 3000 nM | – | – | –
N#Cc1c(SCc2coc(-c3ccc(Cl)cc3)n2)nc(N2CC(O)C2)c(C#N)c1-c1nccs1 [Example 20] | 0.5 nM | 3000 nM | 1800 nM | – | – | –
N#Cc1c(NC[C@H](O)CO)nc(SCc2csc(-c3ccc(Cl)cc3)n2)c(C#N)c1-c1nccs1 [Example 21] | 0.5 nM | 378 nM | 3000 nM | – | – | –
N#Cc1c(N)nc(SCc2coc(-c3ccc(Cl)cc3)n2)c(C#N)c1-c1cn[nH]c1 [Example 12] | 2.4 nM | 3000 nM | 3000 nM | – | – | –
N#Cc1c(N)nc(SCc2cccc(C(N)=O)c2)c(C#N)c1-c1cccs1 [Example 37, 3-({[6-Amino-3,5-dicyano-4-(2-thienyl)pyridin-2-yl]thio}methyl)benzamide] | 0.05 nM | 88 nM | 28 nM | – | – | –
N#Cc1c(N)nc(SCc2csc(-c3ccc(Cl)cc3)n2)c(C#N)c1-c1cccs1 [Example 32, 2-Amino-6-({[2-(4-chlorophenyl)-1,3-thiazol-4-yl]methyl}sulfanyl)-4-thiophen-2-ylpyridine-3,5-dicarbonitrile] | 0.3 nM | 184 nM | 34 nM | – | – | –
CNC(=O)c1cc(CSc2nc(N)c(C#N)c(-c3cc[nH]n3)c2C#N)ccn1 [Example 15] | – | – | – | 0.5 nM | 40 nM | ≥ 50000 nM
